The source made the active and inactive calls. The rule behind the calls is not given here.
Test system: CCRIS mutagenicity, Ames/micronucleus/aberration tests
Assay: CCRIS mutagenicity studies
[1] = Test System: AMES SALMONELLA TYPHIMURIUM, Strain/Indicator: TA98, Metabolic Activation: NONE, Method: STANDARD PLATE
[2] = Test System: AMES SALMONELLA TYPHIMURIUM, Strain/Indicator: TA100, Metabolic Activation: NONE, Method: STANDARD PLATE
[3] = Test System: AMES SALMONELLA TYPHIMURIUM, Strain/Indicator: TA98, Metabolic Activation: RAT, LIVER, S-9, AROCLOR 1254, Method: STANDARD PLATE
[4] = Test System: AMES SALMONELLA TYPHIMURIUM, Strain/Indicator: TA100, Metabolic Activation: RAT, LIVER, S-9, AROCLOR 1254, Method: STANDARD PLATE
[5] = Test System: AMES SALMONELLA TYPHIMURIUM, Strain/Indicator: TA1535, Metabolic Activation: NONE, Method: STANDARD PLATE
[6] = Test System: AMES SALMONELLA TYPHIMURIUM, Strain/Indicator: TA1535, Metabolic Activation: RAT, LIVER, S-9, AROCLOR 1254, Method: STANDARD PLATE
[7] = Test System: AMES SALMONELLA TYPHIMURIUM, Strain/Indicator: TA1537, Metabolic Activation: NONE, Method: STANDARD PLATE
[8] = Test System: AMES SALMONELLA TYPHIMURIUM, Strain/Indicator: TA1537, Metabolic Activation: RAT, LIVER, S-9, AROCLOR 1254, Method: STANDARD PLATE
[9] = Test System: AMES SALMONELLA TYPHIMURIUM, Strain/Indicator: TA1538, Metabolic Activation: NONE, Method: STANDARD PLATE

c1cc(-c2cc3ccc(C4=NCCN4)cc3[nH]2)ccc1C1=NCCN1
mutagenic call [1]: inactive; negative
mutagenic call (Test System: AMES SALMONELLA TYPHIMURIUM, Strain/Indicator: TA98, Metabolic Activation: RAT, LIVER, S-9, PHENOBARBITAL, Method: STANDARD PLATE): inactive; negative
mutagenic call [2]: inactive; negative
mutagenic call (Test System: AMES SALMONELLA TYPHIMURIUM, Strain/Indicator: TA100, Metabolic Activation: RAT, LIVER, S-9, PHENOBARBITAL, Method: STANDARD PLATE): inactive; negative

CC(=O)C(Cl)Cl
mutagenic call [1]: inactive; negative
mutagenic call [3]: inactive; negative
mutagenic call (Test System: AMES SALMONELLA TYPHIMURIUM, Strain/Indicator: TA100, Metabolic Activation: NONE, Method: FLUCTUATION TEST): active; positive
mutagenic call (Test System: AMES SALMONELLA TYPHIMURIUM, Strain/Indicator: TA100, Metabolic Activation: RAT, LIVER, S-9, AROCLOR 1254, Method: FLUCTUATION TEST): inactive; negative
mutagenic call [4]: active; positive
mutagenic call [5]: active; positive
mutagenic call [6]: active; positive
mutagenic call [7]: inactive; negative
mutagenic call [8]: inactive; negative

C=CC(=O)OCCOCCOC(=O)C=C
mutagenic call [1]: inactive; negative
mutagenic call [3]: inactive; negative
mutagenic call (Test System: AMES SALMONELLA TYPHIMURIUM, Strain/Indicator: TA98, Metabolic Activation: RAT, LIVER, S-9, SODIUM PHENOBARBITAL, Method: STANDARD PLATE): inactive; negative
mutagenic call [2]: inactive; negative
mutagenic call [4]: inactive; negative
mutagenic call (Test System: AMES SALMONELLA TYPHIMURIUM, Strain/Indicator: TA100, Metabolic Activation: RAT, LIVER, S-9, SODIUM PHENOBARBITAL, Method: STANDARD PLATE): inactive; negative
mutagenic call [5]: inactive; negative
mutagenic call [6]: inactive; negative
mutagenic call (Test System: AMES SALMONELLA TYPHIMURIUM, Strain/Indicator: TA1535, Metabolic Activation: RAT, LIVER, S-9, SODIUM PHENOBARBITAL, Method: STANDARD PLATE): inactive; negative
mutagenic call [7]: inactive; negative
mutagenic call [8]: inactive; negative
mutagenic call (Test System: AMES SALMONELLA TYPHIMURIUM, Strain/Indicator: TA1537, Metabolic Activation: RAT, LIVER, S-9, SODIUM PHENOBARBITAL, Method: STANDARD PLATE): inactive; negative
mutagenic call [9]: inactive; negative
mutagenic call (Test System: AMES SALMONELLA TYPHIMURIUM, Strain/Indicator: TA1538, Metabolic Activation: RAT, LIVER, S-9, AROCLOR 1254, Method: STANDARD PLATE): inactive; negative
mutagenic call (Test System: AMES SALMONELLA TYPHIMURIUM, Strain/Indicator: TA1538, Metabolic Activation: RAT, LIVER, S-9, SODIUM PHENOBARBITAL, Method: STANDARD PLATE): inactive; negative

C[C@]12C=CC(=O)C=C1CC[C@@H]1[C@@H]2C(=O)C[C@@]2(C)[C@H]1CC[C@]2(O)C(=O)CO
mutagenic call (Test System: AMES SALMONELLA TYPHIMURIUM, Strain/Indicator: TA98, Metabolic Activation: HAMSTER, LIVER, S-9, AROCLOR 1254 (10%), Method: STANDARD PLATE): inactive; negative
mutagenic call [1]: inactive; negative
mutagenic call (Test System: AMES SALMONELLA TYPHIMURIUM, Strain/Indicator: TA98, Metabolic Activation: RAT, LIVER, S-9, AROCLOR 1254 (10%), Method: STANDARD PLATE): inactive; negative
mutagenic call (Test System: AMES SALMONELLA TYPHIMURIUM, Strain/Indicator: TA100, Metabolic Activation: HAMSTER, LIVER, S-9, AROCLOR 1254 (10%), Method: STANDARD PLATE): inactive; negative
mutagenic call [2]: inactive; negative
mutagenic call (Test System: AMES SALMONELLA TYPHIMURIUM, Strain/Indicator: TA100, Metabolic Activation: RAT, LIVER, S-9, AROCLOR 1254 (10%), Method: STANDARD PLATE): inactive; negative
mutagenic call (Test System: AMES SALMONELLA TYPHIMURIUM, Strain/Indicator: TA1535, Metabolic Activation: HAMSTER, LIVER, S-9, AROCLOR 1254 (10%), Method: STANDARD PLATE): inactive; negative
mutagenic call [5]: inactive; negative
mutagenic call (Test System: AMES SALMONELLA TYPHIMURIUM, Strain/Indicator: TA1535, Metabolic Activation: RAT, LIVER, S-9, AROCLOR 1254 (10%), Method: STANDARD PLATE): inactive; negative
mutagenic call (Test System: AMES SALMONELLA TYPHIMURIUM, Strain/Indicator: TA1537, Metabolic Activation: HAMSTER, LIVER, S-9, AROCLOR 1254 (10%), Method: STANDARD PLATE): inactive; negative
mutagenic call [7]: inactive; negative
mutagenic call (Test System: AMES SALMONELLA TYPHIMURIUM, Strain/Indicator: TA1537, Metabolic Activation: RAT, LIVER, S-9, AROCLOR 1254 (10%), Method: STANDARD PLATE): inactive; negative
mutagenic call (Test System: AMES SALMONELLA TYPHIMURIUM, Strain/Indicator: TA1538, Metabolic Activation: HAMSTER, LIVER, S-9, AROCLOR 1254 (10%), Method: STANDARD PLATE): inactive; negative
mutagenic call [9]: inactive; negative
mutagenic call (Test System: AMES SALMONELLA TYPHIMURIUM, Strain/Indicator: TA1538, Metabolic Activation: RAT, LIVER, S-9, AROCLOR 1254 (10%), Method: STANDARD PLATE): inactive; negative
mutagenic call (Test System: MOUSE LYMPHOMA, Strain/Indicator: L5178Y (TK+/TK-), Metabolic Activation: NONE, Method: SUSPENSION/PLATE): inactive; negative. reevaluation of results: negative
mutagenic call (Test System: MOUSE LYMPHOMA, Strain/Indicator: L5178Y (TK+/TK-), Metabolic Activation: RAT, LIVER, S-9, AROCLOR 1254, Method: SUSPENSION/PLATE): inactive; negative. reevaluation of results: inconclusive

Cc1ccc2nsc(NC(=O)C(Cl)Cl)c2c1
mutagenic call [1]: active; positive
mutagenic call (Test System: AMES SALMONELLA TYPHIMURIUM, Strain/Indicator: TA98, Metabolic Activation: S-9, Method: STANDARD PLATE): active; positive
mutagenic call [2]: active; positive
mutagenic call (Test System: AMES SALMONELLA TYPHIMURIUM, Strain/Indicator: TA100, Metabolic Activation: S-9, Method: STANDARD PLATE): active; positive
mutagenic call [5]: inactive; negative
mutagenic call (Test System: AMES SALMONELLA TYPHIMURIUM, Strain/Indicator: TA1535, Metabolic Activation: S-9, Method: STANDARD PLATE): inactive; negative
mutagenic call [7]: active; positive
mutagenic call (Test System: AMES SALMONELLA TYPHIMURIUM, Strain/Indicator: TA1537, Metabolic Activation: S-9, Method: STANDARD PLATE): active; positive

CC(C)C(=O)OCC(C)(C)C(O)C(C)C (stereo not drawn)
mutagenic call (Test System: AMES SALMONELLA TYPHIMURIUM, Strain/Indicator: TA98, Metabolic Activation: NONE, Method: PREINCUBATION): inactive; negative
mutagenic call (Test System: AMES SALMONELLA TYPHIMURIUM, Strain/Indicator: TA98, Metabolic Activation: RAT LIVER S-9, PHENOBARBITAL AND BETA-NAPHTHOFLAVONE, Method: PREINCUBATION): inactive; negative
mutagenic call (Test System: AMES SALMONELLA TYPHIMURIUM, Strain/Indicator: TA100, Metabolic Activation: NONE, Method: PREINCUBATION): inactive; negative
mutagenic call (Test System: AMES SALMONELLA TYPHIMURIUM, Strain/Indicator: TA100, Metabolic Activation: RAT LIVER S-9, PHENOBARBITAL AND BETA-NAPHTHOFLAVONE, Method: PREINCUBATION): inactive; negative
mutagenic call (Test System: AMES SALMONELLA TYPHIMURIUM, Strain/Indicator: TA1535, Metabolic Activation: NONE, Method: PREINCUBATION): inactive; negative
mutagenic call (Test System: AMES SALMONELLA TYPHIMURIUM, Strain/Indicator: TA1535, Metabolic Activation: RAT LIVER S-9, PHENOBARBITAL AND BETA-NAPHTHOFLAVONE, Method: PREINCUBATION): inactive; negative
mutagenic call (Test System: AMES SALMONELLA TYPHIMURIUM, Strain/Indicator: TA1537, Metabolic Activation: NONE, Method: PREINCUBATION): inactive; negative
mutagenic call (Test System: AMES SALMONELLA TYPHIMURIUM, Strain/Indicator: TA1537, Metabolic Activation: RAT LIVER S-9, PHENOBARBITAL AND BETA-NAPHTHOFLAVONE, Method: PREINCUBATION): inactive; negative
mutagenic call (Test System: E.COLI, Strain/Indicator: WP2UVRA/PKM101, Metabolic Activation: NONE, Method: PREINCUBATION): inactive; negative
mutagenic call (Test System: E.COLI, Strain/Indicator: WP2UVRA/PKM101, Metabolic Activation: RAT LIVER S-9, PHENOBARBITAL AND BETA-NAPHTHOFLAVONE, Method: PREINCUBATION): inactive; negative
